Measurements: BindingDB's records for PubMed 36166643 (University of Santiago De Compostela, 2022)

Assay: Induction of CYP24A1 (unknown orgin) transcriptional activity trasfected in human MCF7 cells incuabted for 48 hrs by luciferase reporter gene assay

EC50 | Structure (SMILES)
3 nM | C=C1/C(=C\C=C\c2cc(CCCCCC(C)(C)O)cc(CCCCCC(C)(C)O)c2)C[C@@H](O)C[C@@H]1O
5.6 nM | C=C1/C(=C\C=C(/CCCCCC(C)(C)O)c2cccc(CCCCCC(C)(C)O)c2)C[C@@H](O)C[C@@H]1O
